Measurements from ChEMBL document CHEMBL1201862, “PubChem BioAssay data set” (2004).
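Protocol summary: plate cells (96-well), add compound at 5 concentrations, incubate 48 h, interpolate endpoints linearly. The concentration for 50% growth inhibition is given as GI50.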 Active and inactive are the calls of the source. Cut-off read from the data, not from the text of the source: active = GI50 up to about 1.1 µM and inactive = higher.

Key:
Experiment in all cases: NCI tumour cell line growth inhibition, 48 h
786-0 = tested on: 786-0
A498 = tested on: A498
A549 = tested on: A549
ACHN = tested on: ACHN
BT-549 = tested on: BT-549
CAKI-1 = tested on: CAKI-1
COLO 205 = tested on: COLO 205
DU-145 = tested on: DU-145
EKVX = tested on: EKVX
HCC 2998 = tested on: HCC 2998
HCT-116 = tested on: HCT-116
HCT-15 = tested on: HCT-15
HL-60 = tested on: HL-60
HOP-92 = tested on: HOP-92
HT-29 = tested on: HT-29
KM12 = tested on: KM12
LOX IMVI = tested on: LOX IMVI
M14 = tested on: M14
MCF7 = tested on: MCF7
MDA-MB-231 = tested on: MDA-MB-231
MDA-MB-435 = tested on: MDA-MB-435
MOLT-4 = tested on: MOLT-4
Malme-3M = tested on: Malme-3M
NCI-H226 = tested on: NCI-H226
NCI-H23 = tested on: NCI-H23
NCI-H460 = tested on: NCI-H460
NCI-H522 = tested on: NCI-H522
NCI/ADR-RES = tested on: NCI/ADR-RES
OVCAR-4 = tested on: OVCAR-4
OVCAR-5 = tested on: OVCAR-5
RPMI-8226 = tested on: RPMI-8226
RXF 393 = tested on: RXF 393
SF-268 = tested on: SF-268
SF-295 = tested on: SF-295
SF-539 = tested on: SF-539
SK-OV-3 = tested on: SK-OV-3
SNB-19 = tested on: SNB-19
SNB-75 = tested on: SNB-75
SR = tested on: SR
SW-620 = tested on: SW-620
T47D = tested on: T47D
TK-10 = tested on: TK-10
U-251 = tested on: U-251
UACC-62 = tested on: UACC-62
UO-31 = tested on: UO-31
CCRF-CEM = tested on: CCRF-CEM
HOP-62 = tested on: HOP-62
Hs-578T = tested on: Hs-578T
IGROV-1 = tested on: IGROV-1
K562 = tested on: K562
MDA-N = tested on: MDA-N
OVCAR-3 = tested on: OVCAR-3
OVCAR-8 = tested on: OVCAR-8
PC-3 = tested on: PC-3
SK-MEL-28 = tested on: SK-MEL-28
SK-MEL-2 = tested on: SK-MEL-2
SK-MEL-5 = tested on: SK-MEL-5
SN12C = tested on: SN12C
UACC-257 = tested on: UACC-257

With CC(=O)Nc1ccc(S(=O)(=O)Nc2nnc(S(N)(=O)=O)s2)cc1 the GI50 (786-0) was > 100 µM (inactive), the GI50 (A498) was > 100 µM (inactive) and the GI50 (A549) was > 100 µM (inactive). For the same molecule, the GI50 (ACHN) was > 100 µM (inactive), the GI50 (BT-549) was > 100 µM (inactive) and the GI50 (CAKI-1) was > 100 µM (inactive). The GI50 (COLO 205) was > 100 µM (inactive), the GI50 (DU-145) was > 100 µM (inactive) and the GI50 (EKVX) was > 100 µM (inactive). For the same molecule, the GI50 (HCC 2998) was > 100 µM (inactive), the GI50 (HCT-116) was > 100 µM (inactive) and the GI50 (HCT-15) was > 100 µM. For the same molecule, the GI50 (HL-60) was > 100 µM (inactive), the GI50 (HOP-92) was > 100 µM (inactive) and the GI50 (HT-29) was > 100 µM (inactive). The GI50 (KM12) was > 100 µM (inactive), the GI50 (LOX IMVI) was > 100 µM (inactive) and the GI50 (M14) was > 100 µM (inactive). The GI50 (MCF7) was > 100 µM (inactive), the GI50 (MDA-MB-231) was > 100 µM (inactive) and the GI50 (MDA-MB-435) was > 100 µM (inactive). The GI50 (MOLT-4) was > 100 µM (inactive), the GI50 (Malme-3M) was > 100 µM (inactive) and the GI50 (NCI-H226) was > 100 µM (inactive). The GI50 (NCI-H23) was > 100 µM (inactive), the GI50 (NCI-H460) was > 100 µM (inactive) and the GI50 (NCI-H522) was > 100 µM (inactive). For the same molecule, the GI50 (NCI/ADR-RES) was > 100 µM (inactive), the GI50 (OVCAR-4) was > 100 µM (inactive) and the GI50 (OVCAR-5) was > 100 µM (inactive). For the same molecule, the GI50 (RPMI-8226) was > 100 µM (inactive), the GI50 (RXF 393) was > 100 µM (inactive) and the GI50 (SF-268) was > 100 µM (inactive). The GI50 (SF-295) was > 100 µM (inactive), the GI50 (SF-539) was > 100 µM (inactive) and the GI50 (SK-OV-3) was > 100 µM (inactive). For the same molecule, the GI50 (SNB-19) was > 100 µM (inactive), the GI50 (SNB-75) was > 100 µM (inactive) and the GI50 (SR) was > 100 µM (inactive). For the same molecule, the GI50 (SW-620) was > 100 µM (inactive), the GI50 (T47D) was > 100 µM (inactive) and the GI50 (TK-10) was > 100 µM (inactive). The GI50 (U-251) was > 100 µM (inactive), the GI50 (UACC-62) was > 100 µM (inactive) and the GI50 (UO-31) was > 100 µM (inactive).
For O=c1[nH]nc(Cc2ccc(Cl)cc2)n1O, the GI50 (786-0) was > 100 µM (inactive), the GI50 (A498) was > 100 µM (inactive) and the GI50 (A549) was > 100 µM (inactive). The GI50 (ACHN) was > 100 µM (inactive), the GI50 (CAKI-1) was > 100 µM (inactive) and the GI50 (CCRF-CEM) was > 100 µM (inactive). The GI50 (COLO 205) was > 100 µM (inactive), the GI50 (DU-145) was > 100 µM (inactive) and the GI50 (EKVX) was > 100 µM (inactive). For the same molecule, the GI50 (HCC 2998) was > 100 µM (inactive), the GI50 (HCT-116) was > 100 µM (inactive) and the GI50 (HCT-15) was > 100 µM. For the same molecule, the GI50 (HL-60) was > 100 µM (inactive), the GI50 (HOP-62) was > 100 µM (inactive) and the GI50 (HOP-92) was > 100 µM (inactive). The GI50 (HT-29) was > 100 µM (inactive), the GI50 (Hs-578T) was > 100 µM (inactive) and the GI50 (IGROV-1) was > 100 µM (inactive). For the same molecule, the GI50 (K562) was > 100 µM (inactive), the GI50 (KM12) was > 100 µM (inactive) and the GI50 (LOX IMVI) was > 100 µM (inactive). For the same molecule, the GI50 (M14) was > 100 µM (inactive), the GI50 (MCF7) was > 100 µM (inactive) and the GI50 (MDA-MB-231) was > 100 µM (inactive). For the same molecule, the GI50 (MDA-MB-435) was > 100 µM (inactive), the GI50 (MDA-N) was > 100 µM (inactive) and the GI50 (MOLT-4) was > 100 µM (inactive). For the same molecule, the GI50 (Malme-3M) was > 100 µM (inactive), the GI50 (NCI-H226) was > 100 µM (inactive) and the GI50 (NCI-H23) was > 100 µM (inactive). For the same molecule, the GI50 (NCI-H460) was > 100 µM (inactive), the GI50 (NCI-H522) was > 100 µM (inactive) and the GI50 (NCI/ADR-RES) was > 100 µM (inactive). The GI50 (OVCAR-3) was > 100 µM (inactive), the GI50 (OVCAR-4) was > 100 µM (inactive) and the GI50 (OVCAR-5) was > 100 µM (inactive). For the same molecule, the GI50 (OVCAR-8) was > 100 µM (inactive), the GI50 (PC-3) was > 100 µM (inactive) and the GI50 (RPMI-8226) was > 100 µM (inactive). The GI50 (RXF 393) was > 100 µM (inactive), the GI50 (SF-268) was > 100 µM (inactive) and the GI50 (SF-295) was > 100 µM (inactive). The GI50 (SF-539) was > 100 µM (inactive), the GI50 (SK-MEL-28) was > 100 µM (inactive) and the GI50 (SK-MEL-2) was > 100 µM (inactive). For the same molecule, the GI50 (SK-MEL-5) was > 100 µM (inactive), the GI50 (SK-OV-3) was > 100 µM (inactive) and the GI50 (SN12C) was > 100 µM (inactive). The GI50 (SNB-19) was > 100 µM (inactive), the GI50 (SR) was > 100 µM (inactive) and the GI50 (SW-620) was > 100 µM (inactive). The GI50 (T47D) was > 100 µM (inactive), the GI50 (TK-10) was > 100 µM (inactive) and the GI50 (U-251) was > 100 µM (inactive). The GI50 (UACC-257) was > 100 µM (inactive), the GI50 (UACC-62) was > 100 µM (inactive) and the GI50 (UO-31) was > 100 µM (inactive).
